Data set [1] deals with larval zebrafish. To be noted: 2020, cited from earlier work.
Data set [2] deals with larval zebrafish. Briefly: Teratological and mortality assessment, static exposure 6 hpf to 5 dpf. As to conditions: 30 µM; by 3 dpf; data not shown. In kind it is in vivo. The protocol: At 4 hpf, embryos were treated with 50 µl of 41 mg/ml protease from Streptomyces griseus (P5147, Sigma-Aldrich, St. Louis, MO, United States) in 25 ml of FW for a maximum of 6 min to remove the chorion ([Truong et al., 2011]). At 5 hpf, embryos were placed in individual wells of 96-well plates filled with 100 µl of EM. At 6 hpf, embryos were exposed to a 2× concentration of the selected PCB congeners or controls that were diluted in 100 μl EM to produce a 1× concentration in a total of 200 µl solution. […] After exposure, plates were covered with Parafilm M (Bemis NA, Neenah, WI, United States) to reduce evaporation and placed in an incubator at 28.5°C with 14 h light (∼300 lux)/10 h dark cycles. Final DMSO concentrations were 0.2% (vol/vol) for all exposures. Fish were statically exposed until 5 dpf.
Exposed fish were examined daily for any gross morphological malformations and mortality using an Olympus Stereo Microscope Model SZ61 (Olympus, Japan) up to ×4.5 magnification. […] Teratological endpoints that were evaluated include yolk sac edema, pericardial edema, somite formation, deformities of the body axis, notochord, craniofacial structures, or caudal fin. Malformations were scored in a binary manner of either present or not present. Fish that were scored as neither malformed nor dead were deemed viable. […]

The nature of data set [3]: Enantioselective gas chromatographic analysis of PCB residues in larvae. In kind it is in vivo, zebrafish. As to conditions: residues in exposed larvae; no significant atropisomeric enrichment. The protocol: The enantioselective analysis of PCB 84 was performed on a 6890 Agilent gas chromatograph equipped with a ^63Ni-µECD detector and CP-Chiralsil-Dex CB capillary column with cyclodextrin directly bonded to dimethylpolysiloxane (25 m length, 0.25 mm inner diameter, 0.25 µm film thickness; Varian, Palo Alto, CA, United States). The temperature program was as follows ([Kania-Korwel et al., 2006]): starting temperature 50°C, hold for 1 min, 10°C/min to 140°C for 100 min, then 10°C/min to 200°C for 5 min. The enantioselective analysis of PCB 95 was performed on a 7890 Agilent gas chromatograph equipped with a ^63Ni-µECD detector and Chiraldex B-DM (BDM) capillary column (length, 30 m × inner diameter, 250 μm × 0.12 µm film thickness, Supelco; St. Louis, MO, United States). The following temperature program was used ([Uwimana et al., 2016]): starting temperature 50°C for 1 min, 10°C/min to 160°C for 90 min, then 10°C/min to 200°C for 10 min. For both instruments, the injector was operated in the splitless mode at 250°C, and the detector temperature was 250°C. […] Enantiomer fractions (EF) were calculated with the drop valley method ([Asher et al., 2009]; [Uwimana et al., 2016]) as EF = Area E1/(Area E1 + Area E2), were Area E1 and Area E2 denote the peak area of the first and second eluting atropisomer, respectively. […]

Regarding `Clc1cc(Cl)c(-c2cc(Cl)c(Cl)cc2Cl)cc1Cl` [PCB 153, 2,2',4,4',5,5'-Hexachlorobiphenyl], the malformations or mortality entry with larval zebrafish [1] (larval zebrafish younger than 7 dpf, static exposure, up to 10 μM, ref Aluru et al.) is reported as “no malformations or mortality”.
Turning to `Clc1ccc(Cl)c(-c2c(Cl)ccc(Cl)c2Cl)c1` [PCB 95, 2,2',3,5',6-pentachlorobiphenyl], in the data set on larval zebrafish [2], the loss of viability is reported as ~100%. Besides, the “malformations after developmental exposure” value in the data set on larval zebrafish [1] (exposure commenced shortly after fertilization, ref Ranasinghe et al.) is reported as “caused malformations”. Moreover, the “average EF (enantiomer fraction) values” in data set [3] is listed as 0.50 ± 0.01.
In the case of `Clc1cccc(-c2c(Cl)ccc(Cl)c2Cl)c1Cl` [PCB 84], the “average EF (enantiomer fraction) values” in data set [3] was 0.50 ± 0.01.

Values taken from PMC9582434, “Ryanodine receptor-active non-dioxin-like polychlorinated biphenyls cause neurobehavioral deficits in larval zebrafish” (Frontiers in Toxicology, 2022).
